Where a name gives a salt, the structure may show the parent alone.
How the values were obtained:
[1] = system: MDA-MB-231; assay: In vitro cell growth inhibition assay (MTT); type: cell-based, human; settings: MDA-MB-231 human breast cancer cell line, 48 h, MTT; read-out: IC50 MDA-MB-231
Experimental: (§1) 5000 tumor cells per well were seeded into 96-well plate and allowed to adhere overnight. Cells were treated with various concentrations of tested compounds or DMSO (0.2%, as negative control) for 48 h. Then, the medium along with tested compounds or DMSO was discarded and […] per well MTT containing medium (0.5 mg/mL) was added. After incubation at 37° C. for 4 h, the MTT-containing medium was replaced by DMSO (150 μL per well) to dissolve the formazan crystals. Absorbance of the resulting solution was measured by microplate reader (Biotech ELx800) at 540 nm wavelength. Growth inhibition rates were calculated with the absorbance. Half maximal inhibitory concentration (IC50) of each compound was calculated using GraphPad Prism, version 6.0.

[2] = system: A2780; assay: In vitro cell growth inhibition assay (MTT); type: cell-based, human; settings: A2780 human ovarian cancer cell line, 48 h, MTT; read-out: IC50 A2780
Experimental: as §1

[3] = system: Hela; assay: In vitro cell growth inhibition assay (MTT); type: cell-based, human; settings: Hela human cervical cancer cell line, 48 h, MTT; read-out: IC50 Hela
Experimental: as §1

[4] = system: SKOV3; assay: In vitro cell growth inhibition assay (MTT); type: cell-based, human; settings: SK-OV-3; SKOV-3 human ovarian cancer cell line, 48 h, MTT; read-out: IC50 SKOV3
Experimental: as §1

SMILES | melting point | IC50 [1] | IC50 [2] | IC50 [3] | IC50 [4]
C=C1C(=O)N(c2cc(OC)c(OC)c(OC)c2)[C@H]1c1ccc(OC)c(OS(=O)(=O)c2ccc(C)cc2)c1 (as salt: benzenesulfonate) [Compound 27, (S)-2-methoxy-5-(3-methylene-4-oxo-1-(3,4,5-trimethoxyphenyl)azetidin-2-yl)phenyl 4-methylbenzenesulfonate] | 162 to 163 °C |  |  |  | 
C=C1C(=O)N(c2cc(OC)c(OC)c(OC)c2)[C@H]1c1ccc(OC)c(OS(=O)(=O)c2ccc(NC(C)=O)cc2)c1 (as salt: benzenesulfonate) [Compound 30, (S)-2-methoxy-5-(3-methylene-4-oxo-1-(3,4,5-trimethoxyphenyl)azetidin-2-yl)phenyl 4-acetamidobenzenesulfonate] | 87 to 88 °C |  |  |  | 
C=C1C(=O)N(c2cc(OC)c(OC)c(OC)c2)[C@H]1c1ccc(OC)c(OS(=O)(=O)c2ccc(OC)c(OC)c2)c1 (as salt: benzenesulfonate) [Compound 33, (S)-2-methoxy-5-(3-methylene-4-oxo-1-(3,4,5-trimethoxyphenyl)azetidin-2-yl)phenyl 3,4-dimethoxybenzenesulfonate] | 70 to 71 °C |  |  |  | 
C=C1C(=O)N(c2cc(OC)c(OC)c(OC)c2)[C@H]1c1ccc(OC)c(OS(=O)(=O)Cc2ccccc2)c1 (as salt: methanesulfonate) [Compound 32, (S)-2-methoxy-5-(3-methylene-4-oxo-1-(3,4,5-trimethoxyphenyl)azetidin-2-yl)phenyl phenylmethanesulfonate] | 58 to 59 °C |  |  |  | 
C=C1C(=O)N(c2cc(OC)c(OC)c(OC)c2)[C@H]1c1ccc(OC)c(OC)c1 [Compound 2, (S)-4-(3,4-dimethoxyphenyl)-3-methylene-1-(3,4,5-trimethoxyphenyl)azetidin-2-one] | 138 to 139 °C | 1020 nM | 854 nM | 3160 nM | 2260 nM
C=C1C(=O)N(c2cc(OC)c(OC)c(OC)c2)[C@H]1c1ccc(OC)c(OCC)c1 [Compound 3, (S)-4-(3-ethoxy-4-methoxyphenyl)-3-methylene-1-(3,4,5-trimethoxyphenyl)azetidin-2-one] | 92 to 93 °C | 958 nM | 854 nM | 2030 nM | 1140 nM
C=C1C(=O)N(c2cc(OC)c(OC)c(OC)c2)[C@H]1c1ccc(OC)c(OCCC)c1 [Compound 4, (S)-4-(4-methoxy-3-propoxyphenyl)-3-methylene-1-(3,4,5-trimethoxyphenyl)azetidin-2-one] | 90 to 91 °C | 5620 nM | 3420 nM | 6890 nM | 5260 nM
COc1ccc([C@H]2[C@H](NC(=O)c3ccccc3)C(=O)N2c2cc(OC)c(OC)c(OC)c2)cc1O [Compound 78, N-((2S,3S)-2-(3-hydroxy-4-methoxyphenyl)-4-oxo-1-(3,4,5-trimethoxyphenyl)azetidin-3-yl)benzamide] |  | 47 nM | 27 nM | 24 nM | 45 nM
COc1ccc([C@H]2[C@H](NS(C)(=O)=O)C(=O)N2c2cc(OC)c(OC)c(OC)c2)cc1O [Compound 79, N-((2S,3S)-2-(3-hydroxy-4-methoxyphenyl)-4-oxo-1-(3,4,5-trimethoxyphenyl)azetidin-3-yl)methanesulfonamide] |  | 254 nM | 164 nM | 192 nM | 231 nM
COc1ccc([C@@H]2N(c3cc(OC)c(OC)c(OC)c3)C(=O)[C@]2(O)CO)cc1O [Compound 80, (3R,4S)-3-hydroxy-4-(3-hydroxy-4-methoxyphenyl)-3-(hydroxymethyl)-1-(3,4,5-trimethoxyphenyl)azetidin-2-one] |  | 4470 nM | 1770 nM | 3420 nM | 3000 nM
COC[C@@]1(OC)C(=O)N(c2cc(OC)c(OC)c(OC)c2)[C@H]1c1ccc(OC)c(O)c1 [Compound 81, (3R,4S)-4-(3-hydroxy-4-methoxyphenyl)-3-methoxy-3-(methoxymethyl)-1-(3,4,5-trimethoxyphenyl)azetidin-2-one] |  | 2650 nM | 1750 nM | 2560 nM | 2470 nM
C=C1C(=O)N(c2cc(OC)c(OC)c(OC)c2)[C@H]1c1cccc(O)c1 [Compound 85, (S)-4-(3-hydroxyphenyl)-3-methylene-1-(3,4,5-trimethoxyphenyl)azetidin-2-one] |  | 6640 nM | 10500 nM | 15000 nM | 14500 nM
C=C1C(=O)N(c2cc(OC)c(OC)c(OC)c2)[C@H]1c1cccc(OC)c1 [Compound 86, (S)-4-(3-methoxyphenyl)-3-methylene-1-(3,4,5-trimethoxyphenyl)azetidin-2-one] |  | 6320 nM | 2290 nM | 12300 nM | 8180 nM
C=C1C(=O)N(c2cc(OC)c(OC)c(OC)c2)[C@H]1c1ccc(C)cc1 [Compound 87, (S)-3-methylene-4-(p-tolyl)-1-(3,4,5-trimethoxyphenyl)azetidin-2-one] |  | 193 nM | 127 nM | 209 nM | 265 nM
C=C1C(=O)N(c2cc(OC)c(OC)c(OC)c2)[C@H]1c1ccc(C(C)C)cc1 [Compound 88, (S)-4-(4-isopropylphenyl)-3-methylene-1-(3,4,5-trimethoxyphenyl)azetidin-2-one] |  | 2550 nM | 2120 nM | 2210 nM | 2470 nM
C=C1C(=O)N(c2cc(OC)c(OC)c(OC)c2)[C@H]1c1ccc(OC)c(OC(=O)c2ccc(OC)cc2)c1 [Compound 96, (S)-2-methoxy-5-(3-methylene-4-oxo-1-(3,4,5-trimethoxyphenyl)azetidin-2-yl)phenyl 4-methoxybenzoate] |  | 284 nM | 125 nM | 139 nM | 258 nM
C=C1C(=O)N(c2cc(OC)c(OC)c(OC)c2)[C@@H]1c1ccc(OC)c(O)c1 [Compound 98, (R)-4-(3-hydroxy-4-methoxyphenyl)-3-methylene-1-(3,4,5-trimethoxyphenyl)azetidin-2-one] |  | > 20000 nM | > 20000 nM | > 20000 nM | > 20000 nM
COc1ccc([C@@H]2[C@H](C)C(=O)N2c2cc(OC)c(OC)c(OC)c2)cc1O [Compound 101, (3S,4S)-4-(3-hydroxy-4-methoxyphenyl)-3-methyl-1-(3,4,5-trimethoxyphenyl)azetidin-2-one] |  | 5140 nM | 5750 nM | 3920 nM | 3270 nM
COc1ccc([C@@H]2[C@@H](C)C(=O)N2c2cc(OC)c(OC)c(OC)c2)cc1O [Compound 102, (3R,4S)-4-(3-hydroxy-4-methoxyphenyl)-3-methyl-1-(3,4,5-trimethoxyphenyl)azetidin-2-one] |  | 1080 nM | 771 nM | 807 nM | 650 nM
COc1ccc([C@H]2[C@@H](C)C(=O)N2c2cc(OC)c(OC)c(OC)c2)cc1N [Compound 103, (3R,4R)-4-(3-amino-4-methoxyphenyl)-3-methyl-1-(3,4,5-trimethoxyphenyl)azetidin-2-one] |  | 81 nM | 78 nM | 61 nM | 77 nM
COc1ccc([C@H]2[C@H](C)C(=O)N2c2cc(OC)c(OC)c(OC)c2)cc1N [Compound 104, (3S,4R)-4-(3-amino-4-methoxyphenyl)-3-methyl-1-(3,4,5-trimethoxyphenyl)azetidin-2-one] |  | 32 nM | 20 nM | 37 nM | 25 nM
COc1ccc([C@@H]2N(c3cc(OC)c(OC)c(OC)c3)C(=O)C23CC3)cc1O [Compound 105, (S)-6-(3-hydroxy-4-methoxyphenyl)-5-(3,4,5-trimethoxyphenyl)-5-azaspiro[2.3]hexan-4-one] |  | 326 nM | 302 nM | 436 nM | 388 nM
CC[C@H]1C(=O)N(c2cc(OC)c(OC)c(OC)c2)[C@H]1c1ccc(OC)c(O)c1 [Compound 106, (3R,4R)-3-ethyl-4-(3-hydroxy-4-methoxyphenyl)-1-(3,4,5-trimethoxyphenyl)azetidin-2-one] |  | 286 nM | 250 nM | 320 nM | 215 nM
C=C1C(=O)N(c2cc(OC)c(OC)c(OC)c2)[C@H]1c1ccc(OC)c(OS(=O)(=O)F)c1 [Compound 107, (S)-2-methoxy-5-(3-methylene-4-oxo-1-(3,4,5-trimethoxyphenyl)azetidin-2-yl)phenyl sulfofluoridate] |  | 216 nM | 121 nM | 174 nM | 178 nM
COc1ccc([C@H]2[C@@H](C)C(=O)N2c2cc(OC)c(OC)c(OC)c2)cc1OS(=O)(=O)F [Compound 108, 2-methoxy-5-((2R,3R)-3-methyl-4-oxo-1-(3,4,5-trimethoxyphenyl)azetidin-2-yl)phenyl sulfofluoridate] |  | 40 nM | 35 nM | 54 nM | 62 nM
COc1ccc([C@H]2[C@H](C)C(=O)N2c2cc(OC)c(OC)c(OC)c2)cc1OS(=O)(=O)F [Compound 109, 2-methoxy-5-((2R,3S)-3-methyl-4-oxo-1-(3,4,5-trimethoxyphenyl)azetidin-2-yl)phenyl sulfofluoridate] |  | 23 nM | 21 nM | 51 nM | 34 nM

From patent US20200392150A1, “Diaryl-B-Lactam Compound and Preparation Method and Pharmaceutical Use Thereof” (Fudan University, priority 2016, published 2020)
